Target: P. falciparum apicoplast DNA polymerase (Pf-apPOL) (Plasmodium falciparum, UniProt Q8ILY1)
Assay: Fluorescence-based high-throughput DNA polymerase assay (molecular beacon), primary screen and dose-response;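 for % inhibition ApPOL 90': test concentration in µM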;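 for % inhibition Apol 40': compound concentration given in µM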;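 for % inhibition apPOL 180': test concentration in µM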
Assay type: biochemical
Settings: for DNA Pol: 90 min, 10 µM
Outline: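 Single-point screening used 10 µM compound with 20 nM polymerase, 20 nM hairpin substrate and 6 µM dNTPs for 90 min at 25 °C. Confirmatory titrations (2.5–80 µM) followed fluorescence at three times, and IC50 was derived from a fit including a cooperativity term n.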

[1] = 'DNA Pol' of the 186 hits list (primary screen value)
[2] = "DNA Pol" of the 186 hits list (screen value)

Sequence of P. falciparum apicoplast DNA polymerase (Pf-apPOL) (Q8ILY1 entry or part of it): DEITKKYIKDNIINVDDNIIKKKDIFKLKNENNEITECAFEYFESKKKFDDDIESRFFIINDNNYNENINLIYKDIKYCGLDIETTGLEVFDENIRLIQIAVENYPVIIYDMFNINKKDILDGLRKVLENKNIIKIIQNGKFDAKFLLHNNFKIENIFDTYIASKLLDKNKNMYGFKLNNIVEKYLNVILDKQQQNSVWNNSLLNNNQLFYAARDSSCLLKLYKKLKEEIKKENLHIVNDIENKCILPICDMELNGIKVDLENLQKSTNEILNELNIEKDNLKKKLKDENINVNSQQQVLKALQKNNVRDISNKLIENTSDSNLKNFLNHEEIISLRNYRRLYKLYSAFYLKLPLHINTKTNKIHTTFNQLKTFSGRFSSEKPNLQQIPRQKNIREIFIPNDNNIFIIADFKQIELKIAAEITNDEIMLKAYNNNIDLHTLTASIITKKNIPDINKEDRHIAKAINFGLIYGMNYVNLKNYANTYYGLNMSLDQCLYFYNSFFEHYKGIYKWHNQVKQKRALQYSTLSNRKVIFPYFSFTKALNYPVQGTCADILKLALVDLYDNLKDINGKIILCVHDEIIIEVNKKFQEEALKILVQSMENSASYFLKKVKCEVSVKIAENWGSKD

Cc1ccccc1C(=O)N1CCc2c(nc3cc(-c4ccccc4)[nH]n3c2=O)C1 [Molecule 41, Cc1ccccc1C(=O)N1CCc2c(C1)nc1n(c2=O)[nH]c(c1)c1ccccc1]
DNA Pol [1]: 47
DNA Pol (DNA Pol (primary screen value)): 47
% inhibition Apo pol 10' (DRC-1, concentration 2.5): 6.184%
% inhibition Apo pol 10' (DRC-1, concentration 5): 10.1754%
% inhibition Apo pol 10' (DRC-1, concentration 10): 45.445%
% inhibition Apo pol 10' (DRC-1, concentration 20): 74.5975%
% inhibition Apo pol 10' (DRC-1, concentration 40): 80.8347%
% inhibition Apo pol 10' (DRC-1, concentration 80): 67.5135%
% inhibition Apol 90' (DRC-1, concentration 2.5): 1.828%
% inhibition Apol 90' (DRC-1, concentration 5): 3.445%
% inhibition Apol 90' (DRC-1, concentration 10): 31.8176%
% inhibition Apol 90' (DRC-1, concentration 20): 59.5671%
% inhibition Apol 90' (DRC-1, concentration 40): 74.5448%
% inhibition Apol 90' (DRC-1, concentration 80): 71.589%
% inhibition apPOL 180' (DRC-1, concentration 2.5): -1.511%
% inhibition apPOL 180' (DRC-1, concentration 5): -3.248%
% inhibition apPOL 180' (DRC-1, concentration 10): 20.9007%
% inhibition apPOL 180' (DRC-1, concentration 20): 43.9765%
% inhibition apPOL 180' (DRC-1, concentration 40): 64.8377%
% inhibition apPOL 180' (DRC-1, concentration 80): 65.5415%
% inhibition Apo pol 5' (DRC-2, concentration 2.5): 7%
% inhibition Apo pol 5' (DRC-2, concentration 5): 8%
% inhibition Apo pol 5' (DRC-2, concentration 10): 20%
% inhibition Apo pol 5' (DRC-2, concentration 20): 17%
% inhibition Apo pol 5' (DRC-2, concentration 40): 46%
% inhibition Apo pol 5' (DRC-2, concentration 80): 29%
% inhibition Apol 40' (DRC-2, concentration 2.5): 9%
% inhibition Apol 40' (DRC-2, concentration 5): 5.58%
% inhibition Apol 40' (DRC-2, concentration 10): 22%
% inhibition Apol 40' (DRC-2, concentration 20): 18%
% inhibition Apol 40' (DRC-2, concentration 40): 61%
% inhibition Apol 40' (DRC-2, concentration 80): 54%
% inhibition ApPOL 90' (DRC-2, concentration 2.5): 8%
% inhibition ApPOL 90' (DRC-2, concentration 5): 5%
% inhibition ApPOL 90' (DRC-2, concentration 10): 21%
% inhibition ApPOL 90' (DRC-2, concentration 20): 17%
% inhibition ApPOL 90' (DRC-2, concentration 40): 61%
% inhibition ApPOL 90' (DRC-2, concentration 80): 59%
% inhibition apPOL 180' (DRC-2, concentration 2.5): 4.5%
% inhibition apPOL 180' (DRC-2, concentration 5): 1.21%
% inhibition apPOL 180' (DRC-2, concentration 10): 16%
% inhibition apPOL 180' (DRC-2, concentration 20): 9%
% inhibition apPOL 180' (DRC-2, concentration 40): 55%
% inhibition apPOL 180' (DRC-2, concentration 80): 58%

COc1cccc(C(=O)N2CCc3c(nc4cc(-c5ccccc5)[nH]n4c3=O)C2)c1OC [Molecule 22, COc1c(OC)cccc1C(=O)N1CCc2c(C1)nc1n(c2=O)[nH]c(c1)c1ccccc1]
DNA Pol [2]: 45
% inhibition Apo pol 10' (DRC-1, concentration 2.5): -0.412%
% inhibition Apo pol 10' (DRC-1, concentration 5): 25%
% inhibition Apo pol 10' (DRC-1, concentration 10): 67%
% inhibition Apo pol 10' (DRC-1, concentration 20): 81%
% inhibition Apo pol 10' (DRC-1, concentration 40): 88%
% inhibition Apo pol 10' (DRC-1, concentration 80): 81%
% inhibition Apol 90' (DRC-1, concentration 2.5): -3%
% inhibition Apol 90' (DRC-1, concentration 5): 12%
% inhibition Apol 90' (DRC-1, concentration 10): 49%
% inhibition Apol 90' (DRC-1, concentration 20): 67%
% inhibition Apol 90' (DRC-1, concentration 40): 83%
% inhibition Apol 90' (DRC-1, concentration 80): 84%
% inhibition apPOL 180' (DRC-1, concentration 2.5): -5.7%
% inhibition apPOL 180' (DRC-1, concentration 5): 2.34%
% inhibition apPOL 180' (DRC-1, concentration 10): 32%
% inhibition apPOL 180' (DRC-1, concentration 20): 49%
% inhibition apPOL 180' (DRC-1, concentration 40): 73%
% inhibition apPOL 180' (DRC-1, concentration 80): 78%
% inhibition Apo pol 5' (DRC-2, concentration 2.5): -0.913%
% inhibition Apo pol 5' (DRC-2, concentration 5): 19%
% inhibition Apo pol 5' (DRC-2, concentration 10): 42%
% inhibition Apo pol 5' (DRC-2, concentration 20): 52%
% inhibition Apo pol 5' (DRC-2, concentration 40): 55%
% inhibition Apo pol 5' (DRC-2, concentration 80): 47%
% inhibition Apol 40' (DRC-2, concentration 2.5): -1.15%
% inhibition Apol 40' (DRC-2, concentration 5): 21%
% inhibition Apol 40' (DRC-2, concentration 10): 45%
% inhibition Apol 40' (DRC-2, concentration 20): 61%
% inhibition Apol 40' (DRC-2, concentration 40): 69%
% inhibition Apol 40' (DRC-2, concentration 80): 66%
% inhibition ApPOL 90' (DRC-2, concentration 2.5): 0.469%
% inhibition ApPOL 90' (DRC-2, concentration 5): 20%
% inhibition ApPOL 90' (DRC-2, concentration 10): 44%
% inhibition ApPOL 90' (DRC-2, concentration 20): 61%
% inhibition ApPOL 90' (DRC-2, concentration 40): 70%
% inhibition ApPOL 90' (DRC-2, concentration 80): 70%
% inhibition apPOL 180' (DRC-2, concentration 2.5): -0.311%
% inhibition apPOL 180' (DRC-2, concentration 5): 13%
% inhibition apPOL 180' (DRC-2, concentration 10): 34%
% inhibition apPOL 180' (DRC-2, concentration 20): 53%
% inhibition apPOL 180' (DRC-2, concentration 40): 65%
% inhibition apPOL 180' (DRC-2, concentration 80): 69%
% inhibition Apo pol 10' (first DRC, concentration 10): 67%
% inhibition Apo pol 10' (first DRC, concentration 20): 81%
% inhibition Apo pol 10' (first DRC, concentration 80): 81%
% inhibition Apol 90' (first DRC, concentration 10): 49%
% inhibition Apol 90' (first DRC, concentration 20): 67%
% inhibition apPOL 180' (first DRC, concentration 20): 49%
DNA Pol (primary screen value, DNA Pol): 45

N#CC(=NNc1cc(C(F)(F)F)cc(C(F)(F)F)c1)C(=O)c1ccco1 [KU0264276]
DNA Pol [2]: 81
% inhibition Apo pol 10' (DRC-1, concentration 2.5): 7.413%
% inhibition Apo pol 10' (DRC-1, concentration 5): 17.153%
% inhibition Apo pol 10' (DRC-1, concentration 10): 33.1185%
% inhibition Apo pol 10' (DRC-1, concentration 20): 55.9301%
% inhibition Apo pol 10' (DRC-1, concentration 40): 90.9847%
% inhibition Apo pol 10' (DRC-1, concentration 80): 81.2188%
% inhibition Apol 90' (DRC-1, concentration 2.5): 13.8039%
% inhibition Apol 90' (DRC-1, concentration 5): 15.4083%
% inhibition Apol 90' (DRC-1, concentration 10): 41.225%
% inhibition Apol 90' (DRC-1, concentration 20): 52.5694%
% inhibition Apol 90' (DRC-1, concentration 40): 86.2656%
% inhibition Apol 90' (DRC-1, concentration 80): 77.3906%
% inhibition apPOL 180' (DRC-1, concentration 2.5): 13.2581%
% inhibition apPOL 180' (DRC-1, concentration 5): 8.8259%
% inhibition apPOL 180' (DRC-1, concentration 10): 37.6364%
% inhibition apPOL 180' (DRC-1, concentration 20): 41.4937%
% inhibition apPOL 180' (DRC-1, concentration 40): 81.9249%
% inhibition apPOL 180' (DRC-1, concentration 80): 71.4519%
% inhibition Apo pol 5' (DRC-2, concentration 2.5): 6%
% inhibition Apo pol 5' (DRC-2, concentration 5): 12%
% inhibition Apo pol 5' (DRC-2, concentration 10): 27%
% inhibition Apo pol 5' (DRC-2, concentration 20): 47%
% inhibition Apo pol 5' (DRC-2, concentration 40): 57%
% inhibition Apo pol 5' (DRC-2, concentration 80): 58%
% inhibition Apol 40' (DRC-2, concentration 2.5): 8%
% inhibition Apol 40' (DRC-2, concentration 5): 15%
% inhibition Apol 40' (DRC-2, concentration 10): 34%
% inhibition Apol 40' (DRC-2, concentration 20): 59%
% inhibition Apol 40' (DRC-2, concentration 40): 69%
% inhibition Apol 40' (DRC-2, concentration 80): 72%
% inhibition ApPOL 90' (DRC-2, concentration 2.5): 4.34%
% inhibition ApPOL 90' (DRC-2, concentration 5): 14%
% inhibition ApPOL 90' (DRC-2, concentration 10): 32%
% inhibition ApPOL 90' (DRC-2, concentration 20): 59%
% inhibition ApPOL 90' (DRC-2, concentration 40): 71%
% inhibition ApPOL 90' (DRC-2, concentration 80): 74%
% inhibition apPOL 180' (DRC-2, concentration 2.5): -0.774%
% inhibition apPOL 180' (DRC-2, concentration 5): 4.73%
% inhibition apPOL 180' (DRC-2, concentration 10): 22%
% inhibition apPOL 180' (DRC-2, concentration 20): 52%
% inhibition apPOL 180' (DRC-2, concentration 40): 67%
% inhibition apPOL 180' (DRC-2, concentration 80): 74%
DNA Pol (primary screen value, DNA Pol): 81

CC(C)(C)OC(=O)COc1ccc2cc(-c3ccccc3)c(=O)oc2c1 [Molecule 81, O=C(OC(C)(C)C)COc1ccc2c(c1)oc(=O)c(c2)c1ccccc1]
DNA Pol [1]: 44
DNA Pol (DNA Pol (primary screen value)): 44
% inhibition Apo pol 10' (DRC-1, concentration 2.5): -2.0657%
% inhibition Apo pol 10' (DRC-1, concentration 5): -5.666%
% inhibition Apo pol 10' (DRC-1, concentration 10): 3.988%
% inhibition Apo pol 10' (DRC-1, concentration 20): 8.332%
% inhibition Apo pol 10' (DRC-1, concentration 40): 16.7579%
% inhibition Apo pol 10' (DRC-1, concentration 80): 23.4286%
% inhibition Apol 90' (DRC-1, concentration 2.5): 2.03%
% inhibition Apol 90' (DRC-1, concentration 5): 3.443%
% inhibition Apol 90' (DRC-1, concentration 10): 16.0875%
% inhibition Apol 90' (DRC-1, concentration 20): 22.5271%
% inhibition Apol 90' (DRC-1, concentration 40): 30.9519%
% inhibition Apol 90' (DRC-1, concentration 80): 41.1721%
% inhibition apPOL 180' (DRC-1, concentration 2.5): 5.717%
% inhibition apPOL 180' (DRC-1, concentration 5): 14.8656%
% inhibition apPOL 180' (DRC-1, concentration 10): 30.2199%
% inhibition apPOL 180' (DRC-1, concentration 20): 41.9896%
% inhibition apPOL 180' (DRC-1, concentration 40): 50.3603%
% inhibition apPOL 180' (DRC-1, concentration 80): 64.7026%
% inhibition Apo pol 5' (DRC-2, concentration 2.5): 8%
% inhibition Apo pol 5' (DRC-2, concentration 5): 10%
% inhibition Apo pol 5' (DRC-2, concentration 10): 23%
% inhibition Apo pol 5' (DRC-2, concentration 20): 28%
% inhibition Apo pol 5' (DRC-2, concentration 40): 36%
% inhibition Apo pol 5' (DRC-2, concentration 80): 44%
% inhibition Apol 40' (DRC-2, concentration 2.5): 5.4%
% inhibition Apol 40' (DRC-2, concentration 5): -3%
% inhibition Apol 40' (DRC-2, concentration 10): 19%
% inhibition Apol 40' (DRC-2, concentration 20): 25%
% inhibition Apol 40' (DRC-2, concentration 40): 33%
% inhibition Apol 40' (DRC-2, concentration 80): 44%
% inhibition ApPOL 90' (DRC-2, concentration 2.5): 3.57%
% inhibition ApPOL 90' (DRC-2, concentration 5): -14%
% inhibition ApPOL 90' (DRC-2, concentration 10): 13%
% inhibition ApPOL 90' (DRC-2, concentration 20): 18%
% inhibition ApPOL 90' (DRC-2, concentration 40): 27%
% inhibition ApPOL 90' (DRC-2, concentration 80): 38%
% inhibition apPOL 180' (DRC-2, concentration 2.5): -1.44%
% inhibition apPOL 180' (DRC-2, concentration 5): -93%
% inhibition apPOL 180' (DRC-2, concentration 10): 1.59%
% inhibition apPOL 180' (DRC-2, concentration 20): 2.69%
% inhibition apPOL 180' (DRC-2, concentration 40): 13%
% inhibition apPOL 180' (DRC-2, concentration 80): 23%

— PMC9090415, “Discovery of small molecule inhibitors of Plasmodium falciparum apicoplast DNA polymerase” (Journal of Enzyme Inhibition and Medicinal Chemistry, 2022)
